Results as given in PubChem BioAssay AID248 (DTP/NCI, 2004).
Inconclusive results and toxic doses are left out. Rule as the data show it: active = T/C of 150% or more; inactive = T/C below 125%.

Tested on: L1210 leukemia ip in BDF1 mice, survival T/C
Assay: NCI In Vivo Anticancer Drug Screen. Data for tumor model L1210 Leukemia (intraperitoneal) in B6D2F1 (BDF1) mice
Settings: endpoint: mean survival time, higher = longer survival
Procedure, shortened: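 Survival endpoint. Drug-treated group vs vehicle group, expressed as T divided by C. Tumor passaged by transplantation.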

[1] = dose: 50.0 mg/kg/injection, schedule: Q01DX009 (ip), vehicle: saline
[2] = dose: 100.0 mg/kg/injection, schedule: Q04DX003 (ip), vehicle: saline
[3] = dose: 50.0 mg/kg/injection, schedule: Q01DX009 (ip), vehicle: saline with Tween-80
[4] = dose: 50.0 mg/kg/injection, schedule: Q04DX003 (ip), vehicle: saline with Tween-80
[5] = dose: 100.0 mg/kg/injection, schedule: Q01DX009 (ip), vehicle: saline with Tween-80
[6] = dose: 100.0 mg/kg/injection, schedule: Q04DX003 (ip), vehicle: saline with Tween-80
[7] = dose: 100.0 mg/kg/injection, schedule: Q01DX009 (ip), vehicle: Klucel (hydroxypropylcellulose) (HPC)
[8] = dose: 200.0 mg/kg/injection, schedule: Q01DX009 (ip), vehicle: Klucel (hydroxypropylcellulose) (HPC)
[9] = dose: 400.0 mg/kg/injection, schedule: Q01DX009 (ip), vehicle: Klucel (hydroxypropylcellulose) (HPC)
[10] = dose: 200.0 mg/kg/injection, schedule: Q04DX003 (ip), vehicle: saline with Tween-80
[11] = dose: 200.0 mg/kg/injection, schedule: Q01DX009 (ip), vehicle: saline with Tween-80
[12] = dose: 25.0 mg/kg/injection, schedule: Q01DX009 (ip), vehicle: Klucel (hydroxypropylcellulose) (HPC)
[13] = dose: 100.0 mg/kg/injection, schedule: Q04DX003 (ip), vehicle: Klucel (hydroxypropylcellulose) (HPC)
[14] = dose: 200.0 mg/kg/injection, schedule: Q04DX003 (ip), vehicle: Klucel (hydroxypropylcellulose) (HPC)
[15] = dose: 400.0 mg/kg/injection, schedule: Q04DX003 (ip), vehicle: Klucel (hydroxypropylcellulose) (HPC)
[16] = dose: 100.0 mg/kg/injection, schedule: Q01DX001 (ip), vehicle: saline
[17] = dose: 200.0 mg/kg/injection, schedule: Q01DX001 (ip), vehicle: saline

Measured: T/C

COc1cccc(/C=C/[N+](=O)[O-])c1OC
inactive: dose: 17.5 mg/kg/injection, schedule: Q01DX009 (ip), vehicle: saline with Tween-80 90 % of control | dose: 35.0 mg/kg/injection, schedule: Q01DX009 (ip), vehicle: saline with Tween-80 101 % of control | dose: 50.0 mg/kg/injection, schedule: Q01DX001 (ip), vehicle: other 103 % of control | [1] 107 % of control | dose: 70.0 mg/kg/injection, schedule: Q01DX009 (ip), vehicle: saline with Tween-80 95 % of control | dose: 100.0 mg/kg/injection, schedule: Q01DX001 (ip), vehicle: other 97 % of control | [2] 108 % of control | dose: 200.0 mg/kg/injection, schedule: Q01DX001 (ip), vehicle: other 103 % of control | dose: 200.0 mg/kg/injection, schedule: Q04DX003 (ip), vehicle: saline 100 % of control

S=C(S)NNc1ccccc1
inactive: dose: 25.0 mg/kg/injection, schedule: Q04DX003 (ip), vehicle: saline with Tween-80 104 % of control | [3] 86 % of control | [4] 109 % of control | [5] 86 % of control | [6] 109 % of control

Cc1ccc(N2C(=O)CC(NC3CCCCC3)C2=O)cc1 (stereo not given)
inactive: [7] 97 % of control | [8] 100 % of control | [9] 97 % of control

Cc1ccc(S(=O)(=O)N(CCCc2ccccc2)c2ccc(C(=O)NC(CCC(=O)O)C(=O)O)cc2)cc1 (stereo not given)
inactive: dose: 75.0 mg/kg/injection, schedule: Q01DX001 (ip), vehicle: gum acacia 101 % of control | dose: 150.0 mg/kg/injection, schedule: Q01DX001 (ip), vehicle: gum acacia 107 % of control | dose: 300.0 mg/kg/injection, schedule: Q01DX001 (ip), vehicle: gum acacia 93 % of control

CC1CC(C)(C)N=C(CCC2CCCCCC2=O)O1 (stereo not given)
inactive: dose: 25.0 mg/kg/injection, schedule: Q01DX009 (ip), vehicle: saline 98 % of control | [1] 102 % of control | [4] 96 % of control | dose: 100.0 mg/kg/injection, schedule: Q01DX009 (ip), vehicle: saline 100 % of control | [6] 93 % of control | dose: 200.0 mg/kg/injection, schedule: Q01DX009 (ip), vehicle: saline 101 % of control | [10] 96 % of control

COc1ccc(NC(=O)COc2cccc(Cl)c2)cc1S(=O)(=O)F
inactive: dose: 25.0 mg/kg/injection, schedule: Q04DX003 (ip), vehicle: gum acacia 98 % of control | dose: 50.0 mg/kg/injection, schedule: Q04DX003 (ip), vehicle: gum acacia 95 % of control | dose: 100.0 mg/kg/injection, schedule: Q04DX003 (ip), vehicle: gum acacia 101 % of control | dose: 200.0 mg/kg/injection, schedule: Q04DX003 (ip), vehicle: gum acacia 95 % of control | dose: 400.0 mg/kg/injection, schedule: Q04DX003 (ip), vehicle: gum acacia 92 % of control

CC[N+](CC)(CCOC(=O)C1C2CC3OC(=O)C1C3C2)Cc1ccccc1 (stereo not given)
inactive: dose: 12.5 mg/kg/injection, schedule: Q04DX003 (ip), vehicle: saline 89 % of control | dose: 25.0 mg/kg/injection, schedule: Q04DX003 (ip), vehicle: saline 89 % of control | dose: 50.0 mg/kg/injection, schedule: Q04DX003 (ip), vehicle: saline 106 % of control | [2] 93 % of control

Oc1ccc(Cl)c2c1CCC2
inactive: [3] 110 % of control | [5] 102 % of control | [6] 101 % of control | [11] 104 % of control | [10] 101 % of control

CN(C)C(=S)SC1OC(CO)C(SC(=S)N(C)C)OC1CO (stereo not given)
inactive: [3] 97 % of control | [5] 104 % of control | [11] 97 % of control

CC(=O)OC1C(CF)OC(n2cnc3c(Cl)ncnc32)C1OC(C)=O (stereo not given)
inactive: dose: 100.0 mg/kg/injection, schedule: Q01DX005 (ip), vehicle: saline 98 % of control | dose: 200.0 mg/kg/injection, schedule: Q01DX005 (ip), vehicle: saline 97 % of control

CCCCCCCCS.[Ni]
inactive: dose: 6.0 mg/kg/injection, schedule: Q01DX009 (ip), vehicle: Klucel (hydroxypropylcellulose) (HPC) 100 % of control | dose: 12.0 mg/kg/injection, schedule: Q01DX009 (ip), vehicle: Klucel (hydroxypropylcellulose) (HPC) 92 % of control | [12] 92 % of control | [2] 102 % of control

Fc1cc(N(CCCl)CCCl)ccc1CN1CCCN(Cc2ccc(N(CCCl)CCCl)cc2F)C1c1ccc(N(CCCl)CCCl)cc1Cl
inactive: dose: 50.0 mg/kg/injection, schedule: Q01DX001 (ip), vehicle: carboxymethylcellulose (CMC) 105 % of control | dose: 100.0 mg/kg/injection, schedule: Q01DX001 (ip), vehicle: carboxymethylcellulose (CMC) 96 % of control | dose: 200.0 mg/kg/injection, schedule: Q01DX001 (ip), vehicle: carboxymethylcellulose (CMC) 100 % of control | dose: 400.0 mg/kg/injection, schedule: Q01DX001 (ip), vehicle: carboxymethylcellulose (CMC) 102 % of control

COc1ccc(C2CCC(=O)CC2C(=O)O)cc1 (stereo not given)
inactive: [7] 92 % of control | [13] 110 % of control | [8] 97 % of control | [14] 98 % of control | [9] 103 % of control | [15] 93 % of control

CCCCOC(=O)C(C(=O)OCCCC)(C(=O)OCCCC)C(C(=O)OCCCC)(C(=O)OCCCC)C(=O)OCCCC
inactive: dose: 50.0 mg/kg/injection, schedule: Q01DX001 (ip), vehicle: saline 101 % of control | [16] 111 % of control | [17] 104 % of control

CCCCC(=O)N/N=C/c1ccccc1C(=O)O
inactive: [16] 96 % of control | [17] 107 % of control | dose: 400.0 mg/kg/injection, schedule: Q01DX001 (ip), vehicle: saline 91 % of control

CCOc1ccc(NC(=S)NC(=O)c2ccco2)cc1
inactive: [5] 93 % of control | [13] 104 % of control | [11] 93 % of control | [14] 94 % of control | [15] 100 % of control

Cc1c([N+](=O)[O-])cc(C(C)(C)C)c(OC(=O)Nc2ccc(Cl)cc2)c1[N+](=O)[O-]
inactive: [13] 95 % of control | [14] 92 % of control

CC(=O)C(CCC(=O)O)(CCC(=O)O)c1ccccc1
inactive: dose: 30.0 mg/kg/injection, schedule: Q01DX Z (ip), vehicle: other 100 % of control | dose: 60.0 mg/kg/injection, schedule: Q01DX Z (ip), vehicle: other 101 % of control | [13] 92 % of control | dose: 120.0 mg/kg/injection, schedule: Q01DX Z (ip), vehicle: other 95 % of control | [14] 97 % of control | dose: 240.0 mg/kg/injection, schedule: Q01DX Z (ip), vehicle: other 95 % of control | [15] 102 % of control

CCCCCCCCCC(=O)NN=C(C)C
inactive: dose: 12.5 mg/kg/injection, schedule: Q01DX009 (ip), vehicle: Klucel (hydroxypropylcellulose) (HPC) 92 % of control | [12] 105 % of control | dose: 50.0 mg/kg/injection, schedule: Q01DX009 (ip), vehicle: Klucel (hydroxypropylcellulose) (HPC) 116 % of control

ClC1(Cl)C2/C=C/CCCCC21 (stereo not given)
inactive: dose: 100.0 mg/kg/injection, schedule: Q01DX005 (ip), vehicle: saline with Tween-80 105 % of control | dose: 100.0 mg/kg/injection, schedule: Q04DX002 (ip), vehicle: saline with Tween-80 92 % of control | dose: 200.0 mg/kg/injection, schedule: Q01DX005 (ip), vehicle: saline with Tween-80 92 % of control | dose: 200.0 mg/kg/injection, schedule: Q04DX002 (ip), vehicle: saline with Tween-80 113 % of control | dose: 400.0 mg/kg/injection, schedule: Q01DX005 (ip), vehicle: saline with Tween-80 92 % of control | dose: 400.0 mg/kg/injection, schedule: Q04DX002 (ip), vehicle: saline with Tween-80 95 % of control

CC1C2CCC(C2)C(C)C1Br (stereo not given)
inactive: dose: 100.0 mg/kg/injection, schedule: Q01DX009 (ip), vehicle: other 99 % of control | dose: 100.0 mg/kg/injection, schedule: Q04DX003 (ip), vehicle: other 102 % of control | dose: 200.0 mg/kg/injection, schedule: Q01DX009 (ip), vehicle: other 96 % of control | dose: 200.0 mg/kg/injection, schedule: Q04DX003 (ip), vehicle: other 102 % of control | dose: 400.0 mg/kg/injection, schedule: Q01DX009 (ip), vehicle: other 96 % of control | dose: 400.0 mg/kg/injection, schedule: Q04DX003 (ip), vehicle: other 109 % of control
